According to ChEMBL document CHEMBL3885881, “DrugMatrix”:

Organism: Rattus norvegicus
Experiment: DrugMatrix - Regimen: Daily Repeat
Assay type: toxicity, organism-based, Sprague-Dawley
Design: regimen Daily Repeat, gender Male, age 6-8 weeks
Conditions: in vivo, po, route oral GAVAGE, […]; for ABSOLUTE BASOPHIL / ABSOLUTE EOSINOPHIL / ABSOLUTE LYMPHOCYTE / ABSOLUTE MONOCYTE / ABSOLUTE SEGMENTED NEUTROPHIL / BASOPHIL / EOSINOPHIL / ERYTHROCYTE COUNT / HEMATOCRIT / HEMOGLOBIN / LEUKOCYTE COUNT / LYMPHOCYTE / MEAN CORPUSCULAR HEMOGLOBIN / MEAN CORPUSCULAR HEMOGLOBIN CONCENTRATION / MEAN CORPUSCULAR VOLUME / MONOCYTE / NEUTROPHIL / NUCLEATED RED BLOOD CELLS / PLATELET COUNT: tissue Blood; for ALANINE AMINOTRANSFERASE / ALBUMIN / ALKALINE PHOSPHATASE / ASPARTATE AMINOTRANSFERASE / BLOOD UREA NITROGEN / CARBON DIOXIDE / CHLORIDE / CHOLESTEROL / CREATINE PHOSPHOKINASE / CREATININE / GLUCOSE / LACTATE DEHYDROGENASE / LIPASE / PHOSPHORUS / POTASSIUM / SODIUM / TOTAL BILIRUBIN / TOTAL PROTEIN / URIC ACID: tissue Plasma
[1] = 0 mg/kg, 72 h, dose level Control, time 3 day
[2] = 0 mg/kg, 120 h, dose level Control, time 5 day
[3] = 0.6 mg/kg, 72 h, dose level Low, time 3 day

Structure (SMILES): O=C(O)CCCc1ccc(N(CCCl)CCCl)cc1 [CHLORAMBUCIL]
- ABSOLUTE BASOPHIL [1]: 0 CELLS/uL
- ABSOLUTE EOSINOPHIL [1]: 104.17 CELLS/uL
- ABSOLUTE LYMPHOCYTE [1]: 14547 CELLS/uL
- ABSOLUTE MONOCYTE [1]: 292 CELLS/uL
- ABSOLUTE SEGMENTED NEUTROPHIL [1]: 1640.17 CELLS/uL
- BASOPHIL [1]: 0%
- EOSINOPHIL [1]: 0.67%
- ERYTHROCYTE COUNT [1]: 5.35 x10E6/uL
- HEMATOCRIT [1]: 33.67%
- HEMOGLOBIN [1]: 13.38 G/DL
- LEUKOCYTE COUNT [1]: 16.58 x10E3/uL
- LYMPHOCYTE [1]: 87.5%
- MEAN CORPUSCULAR HEMOGLOBIN [1]: 25.05 pg
- MEAN CORPUSCULAR HEMOGLOBIN CONCENTRATION [1]: 39.78 G/DL
- MEAN CORPUSCULAR VOLUME [1]: 62.97 fL
- MONOCYTE [1]: 1.83%
- NEUTROPHIL [1]: 10%
- NUCLEATED RED BLOOD CELLS [1]: 0 /100WBC
- PLATELET COUNT [1]: 1274.5 x10E3/uL
- ALANINE AMINOTRANSFERASE [1]: 76.83 u/L
- ALBUMIN [1]: 3.97 G/DL
- ALKALINE PHOSPHATASE [1]: 347 u/L
- ASPARTATE AMINOTRANSFERASE [1]: 97.17 u/L
- BLOOD UREA NITROGEN [1]: 14.33 mg/dL
- CARBON DIOXIDE [1]: 25.5 mmol/L
- CHLORIDE [1]: 100.33 MEQ/L
- CHOLESTEROL [1]: 68.67 mg/dL
- CREATINE PHOSPHOKINASE [1]: 659.17 u/L
- CREATININE [1]: 0.32 mg/dL
- GLUCOSE [1]: 160.67 mg/dL
- LACTATE DEHYDROGENASE [1]: 271.5 u/L
- LIPASE [1]: 11.67 u/L
- PHOSPHORUS [1]: 10.65 mg/dL
- POTASSIUM [1]: 5.95 MEQ/L
- SODIUM [1]: 139.65 MEQ/L
- TOTAL BILIRUBIN [1]: 0.2 mg/dL
- TOTAL PROTEIN [1]: 5.72 G/DL
- URIC ACID [1]: 1.37 mg/dL
- ABSOLUTE BASOPHIL [2]: 0 CELLS/uL
- ABSOLUTE EOSINOPHIL [2]: 331.5 CELLS/uL
- ABSOLUTE LYMPHOCYTE [2]: 15021.67 CELLS/uL
- ABSOLUTE MONOCYTE [2]: 376.5 CELLS/uL
- ABSOLUTE SEGMENTED NEUTROPHIL [2]: 3070.33 CELLS/uL
- BASOPHIL [2]: 0%
- EOSINOPHIL [2]: 1.83%
- ERYTHROCYTE COUNT [2]: 5.24 x10E6/uL
- HEMATOCRIT [2]: 33.22%
- HEMOGLOBIN [2]: 13.2 G/DL
- LEUKOCYTE COUNT [2]: 18.8 x10E3/uL
- LYMPHOCYTE [2]: 79.67%
- MEAN CORPUSCULAR HEMOGLOBIN [2]: 25.17 pg
- MEAN CORPUSCULAR HEMOGLOBIN CONCENTRATION [2]: 39.73 G/DL
- MEAN CORPUSCULAR VOLUME [2]: 63.38 fL
- MONOCYTE [2]: 2%
- NEUTROPHIL [2]: 16.5%
- NUCLEATED RED BLOOD CELLS [2]: 0 /100WBC
- PLATELET COUNT [2]: 1142.67 x10E3/uL
- ALANINE AMINOTRANSFERASE [2]: 52.5 u/L
- ALBUMIN [2]: 3.9 G/DL
- ALKALINE PHOSPHATASE [2]: 284.5 u/L
- ASPARTATE AMINOTRANSFERASE [2]: 81.33 u/L
- BLOOD UREA NITROGEN [2]: 16 mg/dL
- CARBON DIOXIDE [2]: 25.33 mmol/L
- CHLORIDE [2]: 99.5 MEQ/L
- CHOLESTEROL [2]: 74.83 mg/dL
- CREATINE PHOSPHOKINASE [2]: 448.33 u/L
- CREATININE [2]: 0.37 mg/dL
- GLUCOSE [2]: 164.17 mg/dL
- LACTATE DEHYDROGENASE [2]: 290.67 u/L
- LIPASE [2]: 6.83 u/L
- PHOSPHORUS [2]: 11.5 mg/dL
- POTASSIUM [2]: 6.28 MEQ/L
- SODIUM [2]: 139.5 MEQ/L
- TOTAL BILIRUBIN [2]: 0.13 mg/dL
- TOTAL PROTEIN [2]: 5.55 G/DL
- URIC ACID [2]: 1.12 mg/dL
- ABSOLUTE BASOPHIL [3]: 0 CELLS/uL
- ABSOLUTE EOSINOPHIL [3]: 134 CELLS/uL
- ABSOLUTE LYMPHOCYTE [3]: 11100 CELLS/uL
- ABSOLUTE MONOCYTE [3]: 438.67 CELLS/uL
- ABSOLUTE SEGMENTED NEUTROPHIL [3]: 1260.67 CELLS/uL
- BASOPHIL [3]: 0%
- EOSINOPHIL [3]: 1%
- ERYTHROCYTE COUNT [3]: 5.4 x10E6/uL
- HEMATOCRIT [3]: 34.47%
- HEMOGLOBIN [3]: 13.6 G/DL
- LEUKOCYTE COUNT [3]: 12.93 x10E3/uL
- LYMPHOCYTE [3]: 86%
- MEAN CORPUSCULAR HEMOGLOBIN [3]: 25.2 pg
- MEAN CORPUSCULAR HEMOGLOBIN CONCENTRATION [3]: 39.43 G/DL
- MEAN CORPUSCULAR VOLUME [3]: 63.87 fL
- MONOCYTE [3]: 3.33%
- NEUTROPHIL [3]: 9.67%
- NUCLEATED RED BLOOD CELLS [3]: 0 /100WBC
- PLATELET COUNT [3]: 1307.67 x10E3/uL
- ALANINE AMINOTRANSFERASE [3]: 68 u/L
- ALBUMIN [3]: 3.93 G/DL
- ALKALINE PHOSPHATASE [3]: 423 u/L
- ASPARTATE AMINOTRANSFERASE [3]: 81.33 u/L
- BLOOD UREA NITROGEN [3]: 13.33 mg/dL
- CARBON DIOXIDE [3]: 25.33 mmol/L
- CHLORIDE [3]: 101 MEQ/L
- CHOLESTEROL [3]: 71 mg/dL
- CREATINE PHOSPHOKINASE [3]: 316.67 u/L
- CREATININE [3]: 0.26 mg/dL
- GLUCOSE [3]: 153.33 mg/dL
- LACTATE DEHYDROGENASE [3]: 99.67 u/L
- LIPASE [3]: 13 u/L
- PHOSPHORUS [3]: 11.17 mg/dL
- POTASSIUM [3]: 5.8 MEQ/L
- SODIUM [3]: 140.37 MEQ/L
- TOTAL BILIRUBIN [3]: 0.17 mg/dL
- TOTAL PROTEIN [3]: 5.67 G/DL
- URIC ACID [3]: 1.1 mg/dL
